Reference: patent US20250275535A1, “OLIVE TREE BIOMASS EXTRACT” (Veos Pharmaceuticals, S.L., priority 2024, published 2025)
Several values for one entry are separate records, joined by “and”; a condition that tells them apart may be missing. Identical values can stand only once.

What was measured:
Assay type in all cases: in vivo
[1] = system: Corn seeds (field hybrid 7571); assay: Corn seed germination; details: 12 wt. % hydroxytyrosol solution, room temperature, 14 days; water control 27% (FIG. 1C), 33% (repeat, FIG. 1D)
Method: Corn seeds (field hybrid 7571) were incubated at room temperature in a solution including 12 wt. % hydroxytyrosol for 14 days. As a control, corn seeds (field hybrid 7571) were incubated at room temperature in water for 14 days.

Sorghum seeds (RT X 437) = assay: Sorghum seed germination; details: 12 wt. % hydroxytyrosol solution, room temperature, 14 days; water control 36% (FIG. 2C), 29% (repeat, FIG. 2D)
Method: Sorghum seeds (RT X 437) were incubated at room temperature in a solution including 12 wt. % hydroxytyrosol for 14 days. As a control, sorghum seeds (RT X 437) were incubated at room temperature in water for 14 days.

[2] = system: Rice seeds (Japanese cultivar, Taipei 309); assay: Rice seed germination; details: 12 wt. % hydroxytyrosol solution, 37° C., 14 days; water control 56%
Method: Rice seeds (Japanese cultivar, Taipei 309) were incubated at 37° C. in a solution including 12 wt. % hydroxytyrosol for 14 days. As a control, rice seeds (Japanese cultivar, Taipei 309) were incubated at 37° C. in water for 14 days.

Rice plants = assay: Rice growth rate (column length); details: 12 wt. % hydroxytyrosol
Method: Rice plants were treated with 12 wt. % hydroxytyrosol over 28 days. As a control, rice plants were treated with water over 28 days. FIG. 4 depicts a line chart showing the column length of rice plants over 28 days. Table 1 provides the column length of rice plants treated with 12 wt. % hydroxytyrosol and water after 1, 14, and 28 days.

HSP70 = assay: Fold change in protein expression (SDS-PAGE, Western blotting, densitometry); details: 12% hydroxytyrosol, vs water control, FIG. 6
Method: (§1) The effect of different hydroxytyrosol concentrations on crop stress resistance and protein production was examined. […] Protein quantification was conducted using SDS-PAGE and Western blotting for visualization, followed by densitometry analysis to measure fold increases in protein expression. Additionally, HPLC-DAD and mass spectrometry were utilized to confirm hydroxytyrosol stability and retention in plant tissue.

Rubisco = assay: as above; details: 12% hydroxytyrosol, vs water control, FIG. 6
Method: as §1

[3] = system: low molecular weight proteins (sHSPs, LTPs, pathogenesis-related proteins, and LEA proteins); assay: as above; details: 12% hydroxytyrosol, vs water control, FIG. 6
Method: as §1

other HSPs = assay: as above; details: 12% hydroxytyrosol, vs water control, FIG. 6
Method: as §1

OCCc1ccc(O)c(O)c1 [hydroxytyrosol]
corn seeds germinated [1]: 75% and 69%
sorghum seeds germinated (Sorghum seeds (RT X 437)): 78% and 77%
rice seeds germinated [2]: 74%
column length of rice plants (Rice plants; 1 day of treatment, water control 22 cm): 35 cm
column length of rice plants (Rice plants; 14 days of treatment, water control 39 cm): 82 cm
column length of rice plants (Rice plants; 28 days of treatment, water control 60 cm): 112 cm
increase in HSP70 (fold change in protein expression) (HSP70): 2.99 ×
increase in Rubisco (fold change in protein expression) (Rubisco): 1.72 ×
increase in low molecular weight proteins (fold change in protein expression) [3]: 4.09 ×
increase in other HSPs (fold change in protein expression) (other HSPs): 3.10 ×
